The values that follow come from patent publication US20020107235A1, “Glucocorticoid receptor modulators” (priority 2000, published 2002).

The subject of assay [1] is IL-8 (Interleukin-8) production in SW1353 human chondrosarcoma cells. Nature of the assay: glucocorticoid inhibition of IL-1 induced IL-8 production in human chondrosarcoma cells. The conditions noted are these: 20 ng/ml IL-1 beta, 24 hours after addition of IL-1, ELISA, read-out: IC50, inhibitor of IL-8 expression. Format: cell-based. How it is done:
(§1) This assay, the glucocorticoid inhibition of IL-1 (Interleukin-1) induced MMP-1 (Matrix Metalloproteinase-1) and IL-8 (Interleukin-8) production in human chondrosarcoma cells, is conducted as follows: SW1353 human chondrosarcoma cells (obtained from ATCC) from passage 12 through passage 19 are used in a 96 well format assay. Cells are plated at confluence into 96 well plates in DMEM (Dulbecco's Modified Eagle Medium) with 10% fetal bovine serum and incubated at 37° C., 5% CO2. After 24 hours, serum containing media is removed and replaced with 200 ul/well DMEM containing 1 mg/L insulin, 2 g/L lactalbumin hydrosylate, and 0.5 mg/L ascorbic acid and returned to incubation at 37° C., 5% CO2. […] IL-8 production is assessed using the Quantikine human IL-8 ELISA kit from R&D Systems (D8050) on samples diluted 60-fold in RD5P Calibrator Diluent, following the manufacturer's protocol. The percent of the average IL-1 control is determined for the average of each of the triplicate samples following subtraction of the average signal from untreated cells. IC50's are determined from log linear plots of the percent of control versus the concentration of inhibitor. […] MMP-1 production is assessed via the Bio-Trak MMP-1 ELISA kit from Amersham (RPN2610) on 100 ul of neat sample following the manufacturer's protocol. […]
On the technique in general: In an ELISA, binding on a coated surface is turned into a signal by an enzyme label.

The subject of assay [2] is MMP-1 (Matrix Metalloproteinase-1) production in SW1353 human chondrosarcoma cells. Nature of the assay: glucocorticoid inhibition of IL-1 induced MMP-1 production in human chondrosarcoma cells. Format: cell-based. The following applies: 20 ng/ml IL-1 beta, 72 hours after IL-1 addition, ELISA, read-out: IC50, inhibitor of MMP1 expression. As for the experimental part: as §1

A word on the IC50: it is the concentration at which inhibition is half-maximal. Consider `C[C@@H]1C[C@H]2[C@@H]3CCC4=CC(=O)C=C[C@]4(C)[C@@]3(F)[C@@H](O)C[C@]2(C)[C@@]1(O)C(=O)CO` [Dexamethasone, (11β, 16α)-9-fluoro-11,17,21-trihydroxy-16-methylpregna-1,4-diene-3,20-dione], for which the IC50 in assay [1] and in assay [2] was 5 nM in each case.
